# Test results taken from patent US5565460A, “Therapeutic purine agents for parkinson's disease” (Kyowa Hakko Koygo Co., Ltd., priority 1993, dated 1996).
# Columns and labels:
# [1] = test system: Parkinson's disease model in mice (MPTP); test: Effect on locomotor activity in Parkinson's disease model in mice (MPTP-treated mice); assay type: in vivo, male C57BL/6 mice; settings: 30 minutes measurement
# Experimental: 1-Methyl-4-phenyl-1,2,3,6-tetrahydropyridine (MPTP) causes symptoms of Parkinson's disease in humans Science, 219, 979 (1983)]. It is reported that an experimental Parkinson's disease model was obtained by administering MPTP to mice [Science, 224, 1451 (1984)]. If a compound is effective on the experimental Parkinson's disease model in mouse, the compound can be expected to have a therapeutic effect on Parkinson's disease.
# The experiment was performed by using several groups of 7-weeks-old male C57BL/6 mice (weighing 20 to 24 g, Japan SLC), each group consisting of 8 mice. MPTP (RBI Co., Ltd. ) dissolved in a physiological saline solution (Otsuka Pharmaceutical Co., Ltd. ) was intraperitoneally administered to each mouse once a day for five consecutive days at a dose of 30 mg/kg. Test compounds were suspended in injectable distilled water (Otsuka Pharmaceutical Co., Ltd.) containing Tween 80 [polyoxyethylene (20) sorbitan monooleate]. […] The amount of active movements of each mouse was measured by using Automex-II (Columbus Instruments International Corp.) for the period of 30 minutes starting 30 minutes after the administration of the test compound. The effect of the compounds was evaluated by comparing the average counts of the active movements of the test compound-administered groups with those of the control groups. […]
# [2] = test system: Haloperidol-induced catalepsy in mice; test: Effect on haloperidol-induced catalepsy; assay type: in vivo, male ddY mice; settings: Mus musculus; ten mice at each dose; effective = catalepsy score 3 or less; Probit analysis; read-out: ED50 (50% effective dose)
# [3] = test system: rats with a 6-hydroxydopamine-induced unilateral lesion of the nigrostriatal dopamine pathway; test: Augmentation of the contralateral rotation in rats with a 6-hydroxydopamine-induced unilateral lesion of the nigrostriatal dopamine pathway; assay type: in vivo, male Sprague-Dawley rats; settings: 150 minutes
# Source text: When a unilateral lesion of the nigrostriatal pathway is induced by 6-hydroxydopamine in rodents, the sensitivity of dopamine receptors in the denervated striatum is enhanced. Administration of a dopamine […] to the rodents in such a condition induces a rotational behavior to the side contralateral to the lesioned side [Acta Physiol. Scand., 367, 69 (1971)]. This model has been used for a long time as a model for the study of Parkinson's disease and in the screening of drugs for this disease [Neurol. Neurobiol.; 33, 1 (1987)].
# Male Sprague-Dawley rats (weighing 200 to 240 g, Japan SLC) were pretreated with desipramine hydrochloride (25 mg/kg, i.p., Sigma Co.) 30 minutes before surgery to protect noradrenergic neurons. Then, the animals were: anesthetized with sodium pentobarbital (30 mg/kg, i.p., Dainippon Pharm. Co., Ltd.) and the nigrostriatal pathway was lesioned by injection of 6-hydroxydopamine hydrobromide (8 μg, Sigma Co.) into the left medial forebrain bundle. 6-Hydroxydopamine hydrobromide was dissolved in physiological saline containing 0.05% L-ascorbic acid (Wako Pure Chem. Industries, Ltd.) to make 2 μl. of solution and injected over 3 minutes.
# More than 10 days after surgery, each rat was placed in a plastic bowl (30 cm in diameter). […] The number of rotations was counted with an automated rotometer, in which each 180° turn was counted as a rotation. […]
# [4] = test system: Haloperidol-induced catalepsy in mice; test: Effect on haloperidol-induced catalepsy; assay type: in vivo, male ddY mice; settings: 10 mg/kg, oral; for Number of the Animals Showing Remission: five mice, catalepsy score not more than 4; for Remission Rate: rate of decrease in total score based on control group; for Total Score (catalepsy): total of five mice, 25 points at the full (control 25), not more than 20 effective
# Experimental: The experiment was performed by using several groups of 5-weeks-old male ddY mice (weighing 22.to 24 g, Japan SLC), each group consisting of 5 mice. Haloperidol (Janssen Pharmaceutical) suspended in 0.3% CMC was intraperitoneally administered to each mouse at a dose of 1.0 mg/kg. Test compounds were suspended in 0.3% CMC or in injectable distilled water (Otsuka Pharmaceutical Co., Ltd.) containing Tween 80. L-DOPA (Kyowa Hakko Kogyo Co., Ltd.) and benserazide hydrochloride (Kyowa Hakko Kogyo Co., Ltd.) were suspended in 0.3% CMC. One hour after the haloperidol administration, the test compound suspensions and the control suspension [injectable distilled water (Otsuka Pharmaceutical Co., Ltd.) containing Tween 80] containing no test compound were orally administered to separate groups of the mice (0.1 ml per 10 g of body weight). One hour after the administration of the test compound, the forelimbs of each mouse and subsequently the hindlimbs of the same mouse were placed on a 4.5 cm-high, 1.0 cm-wide bar and catalepsy was estimated. […] The catalepsy score and the standard of judgment are shown. below.
# 0: forelimbs less than 5 seconds
# hindlimbs less than 5 seconds
# 2: forelimbs 10 seconds or more
# hindlimbs 5 seconds or more
# hindlimbs 10 seconds or more
# 5: forelimbs 10 seconds or more
# The effect of the compounds was evaluated by the total of the catalepsy scores of five mice in each group (25 points at the full). The groups wherein the total score was not more than 20 point is were estimated to be effective. The number of the animals showing remission against catalepsy is the number of the mice for which the catalepsy score was not more than 4 points.
# The ED50 values were calculated by Probit analysis.
# rid-strain male mice = test: Acute toxicity test; assay type: in vivo; settings: oral, seven days after administration
# Experimental: Test compounds were orally administered to groups of rid-strain male mice weighing 20±1 g, each group consisting of three mice. Seven days after the administration, minimum lethal dose (MLD) of each compound was determined by observing the mortality.
structure (smiles),measurement,setting,value
"Nc1nc(Oc2ccccc2)nc2nc(-c3ccco3)nn12 [Compound 1, 7-Amino-2(2-furyl) -5-phenoxy [1,2,4]triazolo[1,5-a]-1,3,5-triazine]",Amount of Active Movements (average count ± S.E.M),"[1]; 10 mg/kg, oral, MPTP group 41 ± 14.3, normal control 1984 ± 122.3",785 ± 87.3 count
same,ED50,[2],1.3 mg/kg
same,"total rotation counts (average count ± S.E.M.), test compound + apomorphine","[3]; 10 mg/kg oral 30 minutes before apomorphine 0.1 mg/kg, s.c., p<0.05",1011 ± 139 count
same,Number of the Animals Showing Remission,[4],5
same,Remission Rate,[4],80%
same,Total Score (catalepsy),[4],5
same,minimum lethal dose (MLD),rid-strain male mice,greater than 300 mg/kg
"Nc1nc(Oc2ccccc2)nc2cc(-c3ccco3)nn12 [Compound 2, 7-Amino-2-(2-furyl) -5-phenoxypyrazolo [2,3-a]-1,3,5-triazine]",Number of the Animals Showing Remission,[4],4
same,Remission Rate,[4],32%
same,Total Score (catalepsy),[4],17
same,minimum lethal dose (MLD),rid-strain male mice,greater than 300 mg/kg
"Nc1nc2ccc(Cl)cc2c2nc(-c3ccco3)nn12 [Compound 3, 5-Amino-9-chloro-2-(2-furyl) -1,2,4-triazolo-[1,5-c]quinazoline]",Number of the Animals Showing Remission,[4],4
same,Remission Rate,[4],48%
same,Total Score (catalepsy),[4],13
"Nc1nc2nn(Cc3ccc(F)cc3)cc2c2nc(-c3ccco3)nn12 [Compound 4, 5-Amino-8-(4-fluorobenzyl) -2-(2-furyl)pyrazolo-[4,3-e]-1,2,4-triazolo [1,5-c]pyrimidine]",Number of the Animals Showing Remission,[4],3
same,Remission Rate,[4],52%
same,Total Score (catalepsy),[4],12
"N[C@@H](Cc1ccc(O)c(O)c1)C(=O)O [L-DOPA, reference compound]",Amount of Active Movements (average count ± S.E.M),"[1]; L-DOPA 300 mg/kg, MPTP group 207 ± 85.5, normal control 1875 ± 77.7, no significant difference vs MPTP-treated group",561 ± 271.01 count
"CN1CCc2cccc3c2[C@H]1Cc1ccc(O)c(O)c1-3 [apomorphine, reference compound]","total rotation counts (average count ± S.E.M.), apomorphine","[3]; apomorphine 0.1 mg/kg, s.c. without test compound",706 ± 59 count
